Assay results as given in patent publication US12583841B2, “Tetrahydropyrrolocyclic compound and application thereof” (Breakthrough Pharmaceuticals Inc., priority 2021, dated 2026).
pIC50: −log10 of the molar value.

Legend:
[1] = Drug concentration in cerebrospinal fluid of Beagle dogs; assay type: in vivo; conditions: male, po, Beagle dog, p.o. 5 mg/kg
Procedure: 2 healthy male Beagle dogs were selected, and after intragastric administration of the test compound at 5 mg/kg, cerebrospinal fluid samples were taken at 0.5 h, 2 h and 6 h after the administration, respectively. Quantitative analysis of all biological samples was carried out by LC-MS/MS method, and the WinNonlin™ Version 6.3 (Pharsight, Mountain View, CA) pharmacokinetic software was used to calculate the relevant pharmacokinetic parameters by the non-compartmental model linear logarithmic trapezoidal method. AUC0-last represents area under the plasma concentration-time curve from time zero to the last detectable concentration time point; p.o. represents oral; i.v. represents intravenous injection; T1/2 represents half-life; CL represents clearance rate; Vd represents apparent volume of distribution; Cmax represents peak concentration; Tmax represents time to peak; F % represents oral bioavailability.

OX2R = biological target: T1, OX2R (Homo sapiens, UniProt O43614); test: FLIPR intracellular calcium antagonism test, HEK293-OX2R cells; assay type: cell-based; conditions: Orexin A at EC70, read-out: hOX2R IC50
T1 construct: expressed in transfected cells
T1 sequence (O43614 1-444): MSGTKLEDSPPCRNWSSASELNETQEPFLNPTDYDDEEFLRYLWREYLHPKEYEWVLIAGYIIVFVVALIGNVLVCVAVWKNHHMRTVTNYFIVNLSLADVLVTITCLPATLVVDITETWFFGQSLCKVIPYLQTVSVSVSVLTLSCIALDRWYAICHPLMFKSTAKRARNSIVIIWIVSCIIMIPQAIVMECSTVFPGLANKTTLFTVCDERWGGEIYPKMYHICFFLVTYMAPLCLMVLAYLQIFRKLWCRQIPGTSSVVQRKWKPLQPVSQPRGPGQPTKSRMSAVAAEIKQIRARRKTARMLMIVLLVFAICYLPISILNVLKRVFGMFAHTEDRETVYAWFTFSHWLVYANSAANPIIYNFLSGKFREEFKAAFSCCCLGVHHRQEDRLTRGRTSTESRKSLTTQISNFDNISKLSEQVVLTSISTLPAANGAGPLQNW
Procedure: The change of intracellular calcium signal was detected by FLIPR, and the antagonism of the compounds on OX1R and OX2R receptors was evaluated by using IC50 value of the compounds as an index.
• Cell lines: Transfected HEK293-OX1R and HEK293-OX2R stable cell lines • HEK293-OX1R cell culture medium (DMEM, Invitrogen #11960-044, 10% serum Gibco #10099141, L-Glutamine 1×, Gibco #25030, sodium pyruvate 1×, Gibco #11360, Geneticin 300 μg/mL, Gibco #10131) • HEK293-OX2R cell culture medium (DMEM, Invitrogen #11960-044, 10% serum Gibco #10099141, L-Glutamine 1×, Gibco #25030, sodium pyruvate 1×, Gibco #11360, Geneticin 300 μg/mL, Gibco #10131, Blasticin 2 μg/mL, Invitrogen #R21001)
Experimental Steps and Methods: • a) Cell seeding (HEK293-OX1R and HEK293-OX2R cells) • 1) preheating the culture medium, trypsin and DPBS under water bath at 37° C.; pipetting and removing the medium of cell culture and washing same with 10 mL of DPBS; • 2) adding the preheated trypsin to a culture flask, rotating the culture flask so that the trypsin evenly covered the culture flask, and putting the culture flask in a 37° C., 5% CO2 incubator for digestion for 1-2 min; • 3) suspending the cells with 10-15 mL of medium for each T150 and centrifuging at 800 rpm for 5 min; resuspending the cells with 10 mL of medium, pipetting 1 mL of the cell suspension and counting with Vi-cell; • 4) diluting OX1R cells with medium to 5×10^5 cells/mL, and diluting OX2R cells with medium to 4×10^5 cells/mL, and adding the diluted cells to 384 plate (Greiner.781946) with a multi-channel pipette (50 μL/well, 25000 cells/well for OX1R cells, 20000 cells/well for OX2R cells); placing the cell plate in a 37° C., 5% CO2 incubator overnight. • b) Compound loading: • 1) diluting the compound to 20 mM with DMSO, 3-fold dilution, 8 gradients, duplicate wells, and adding same to a compound plate with an Echo liquid handler; then adding 20 μL of buffer to maintain the final concentration of DMSO of 0.1%. • c) FLIPR experiment: • 1) washing off the cell culture medium in the 384 plate with a vacuum pump, adding […] Direct fluorescent dye, incubating in 37° C., 5% CO2 incubator for 1 h, and balancing at room temperature for another 10 min. • 2) EC50 test: manually diluting Orexin A on ice, 3-fold dilution, 8 gradients, duplicate wells; preparing a DMSO plate and keep the DMSO concentration to be 0.5%; putting the cell plate, OrexinA plate, and DMSO plate in FLIPR respectively, and reading the fluorescence value. • 3) calculating the EC70 value based on the EC50 value of Orexin A; preparing a 5×EC70 solution, adding same to 384 compound plate with a multi-channel pipette, and storing on ice; • 4) putting the compound plate, 5×EC70 plate, cell plate, and FLIPR tip in sequence in FLIPR, running the program, and reading the fluorescence value. • d) Data analyzing: using Prism5.0 to analyze the data, and calculating the IC50 value of the compound.

concentration at 0.5 h ([1]; 0.5 h): 1160 nM | concentration at 2 h ([1]; 2 h): 773 nM | concentration at 6 h ([1]; 6 h): 110 nM | pIC50 (OX2R): 7.38
SMILES: COc1ccc(-n2nccn2)c(C(=O)N2C(c3nc4ccc(OC)cc4[nH]3)CC3CC32)c1 (stereo not shown) [Compound 8]
